The results in this text go back to patent US12605461B2, “Hydrogel compositions and uses thereof” (priority 2019, dated 2026).

The test system of one assay is BT474 cells. The experiment in a line: Drug screening, BT474 (RealTime-Glo MT). It counts as cell-based, human. The procedure:
(§1) The following example describes experiments conducted to calculate IC50 values using a non-linear fit in Graphpad Prism by GraphPad Software Inc.
(§2) Cells grown in 2D were dosed starting after 24 h with either EHT-1864, AZD6482, Maritoclax, ZSTK474, Afatinib, TW-37, ABT-199, ABT-263 and Temsirolimus between 50 nM and up to 20 μM using an Hewlett-Packard (HP) D300 digital dispenser containing up to 0.2% DMSO then treated again 48 h following the first dose and ended after 72 h of treatment. Cells grown in 3D were dosed after 14 days with up to 0.2% DMSO every 48 h for 7 days. Cell viability was assessed by removing media and replacing it with 100 μL of sterile RealTime-Glo MT (Promega) which was diluted 1000× in media warmed to 37° C. After 1 h luminescence was detected using a Tecan microplate reader (Life Sciences) with 1 second integration time. Cell viability was calculated by subtracting background luminescence from all groups; treatment was compared to control wells, which received up to 0.2% DMSO. Data represents 3 independent replicates consisting of different cell passages for each condition to calculate the mean and standard deviation of cell viability.

In assay [1] the test system is MDA-MB-468 cells. In words: Drug screening, MDA-MB-468 (PrestoBlue). The format is cell-based. The settings on record: Homo sapiens, treated 7 days. As to the method: as §1
Cells were dosed with 0.1, 1, 5, 20 and 50 μM Erlotinib-HCl containing 0.27% DMSO every 48 h for 7 days. Cell viability was assessed by removing media and replacing it with 150 μL of sterile, PrestoBlue which was diluted 10× in media warmed to 37° C. After 2.5 hours fluorescence was detected using a Tecan microplate reader (Life Sciences) by exciting at 570 nm and detected at 590 nm. Cell viability was calculated by subtracting background fluorescence from all groups; treatment was compared to control wells, which received 0.27% DMSO. Data represents 3 independent replicates consisting of different cell passages for each condition to calculate the mean and standard deviation of cell viability.

Assay [2] deals with tumor derived mammary luminal epithelial cells. In words: Drug screening with primary cells. The format is cell-based. As to conditions: human patient tumour luminal B breast cancer cells. The procedure:
as §2, with “dosed” for “dosed starting”, “Maritoclax” for “either EHT-1864, AZD6482, Maritoclax, ZSTK474, Afatinib, TW-37, ABT-199, ABT-263 and Temsirolimus”, “10” for “50”, “DMSO. IC50 values were calculated using a non-linear fit in Graphpad Prism by GraphPad Software Inc.” for “DMSO.”

For assay [3], the system named is MDA-MB-468 cells. In words: RGDOA cell adhesion assay. The format is cell-based, human. As to conditions: RGDOA 250-1000 μM conjugated to HA-oxime hydrogels for 1 hour. As to the method:
RGDOA Cell Adhesion assay: […] After gelling for 2 h at 37° C., 25 μL of 125, 250, 500, and 1000 μM RGDOA solutions in media described above were added to hydrogels. After treatment with RGDOA solutions for 1 h at 37° C., the media was removed and gels were washed three times with media at 25 μL per well. MDA-MB-468 cells were seeded on the surface of the hydrogels at a density of 3000 cells well^−1 in 25 μL of media and incubated for 30 min. Media was gently removed by pipette and replaced with PBS cooled to 4° C. […] Cells nuclei were stained with Hoechst 33342, 1/250 in PBS, 25 μL well^−1 for 4 h. Images were obtained using an Olympus confocal microscope at 10× magnification with z-stacks of 12 μm step size. Cell number was quantified using spot identification in Imaris 8 software by Bitplane. The fold change in cell number was calculated from control hydrogels containing no RGDOA peptide. A minimum of 3 independent replicates consisting of different cell passages were performed for each condition.

With `Cc1cc([C@@H](C)Nc2ccccc2C(=O)O)c2nc(N3CCOCC3)cc(=O)n2c1` [AZD6482], the “responsiveness in HA-oxime versus Matrigel or 2D TCPS” value in the assay on BT474 cells (BT474 cells) is “more responsive”. With `O=c1cc(CN2CCOCC2)occ1OCCCCCSc1ccnc2cc(C(F)(F)F)ccc12` [EHT-1864], in the assay on BT474 cells (BT474 cells), the “responsiveness in HA-oxime versus Matrigel” value is on record as “more responsive”. Consider `FC(F)c1nc2ccccc2n1-c1nc(N2CCOCC2)nc(N2CCOCC2)n1` [ZSTK474], for which the “cell response between HA-oxime, Matrigel and 2D TCPS” value in the assay with BT474 cells (BT474 cells) is “cell response did not always differ between the 3 culture conditions”.

Consider `C#Cc1cccc(Nc2ncnc3cc(OCCOC)c(OCCOC)cc23)c1` [erlotinib], for which the IC50 (commonly the concentration that inhibits the measured activity by half) is roughly 4.5 µM in the assay with MDA-MB-468 cells [1] (MDA-MB-468, MDA-MB-468 cultured in 3D (Matrigel, HA-oxime+/−Ln) 21 days) and 37.6 µM in the assay with MDA-MB-468 cells [1] (MDA-MB-468, MDA-MB-468 grown on 2D TCPS 21 days). `O=C(c1ccccc1O)c1[nH]c(Cl)c(Cl)c1-n1c(C(=O)c2ccccc2O)cc(Cl)c1Cl` [maritoclax]: the “sensitivity in HA-oxime versus 2D TCPS” value with BT474 cells (BT474 cells) is reported as “over tenfold more sensitive”. The IC50 in the assay on BT474 cells (BT474 cells cultured in 2D TCPS) came out at 5.5 µM; in the assay with BT474 cells (BT474 cells cultured in HA-oxime), 0.59 µM. For the same molecule, the “sensitivity in 3D HA-oxime versus 2D TCPS” value in assay [2] is listed as “significantly more sensitive”.

As to Acetyl-GRGDSPASSKK(OA)G [RGDOA], the “number of adherent MDA-MB-468 cells” value in the assay with MDA-MB-468 cells [3] was “increase in the number of adherent cells”.
